In patent US6998383B2, “Inhibitors of receptor activator of NF-κB and uses thereof” (Research Development Corporation, priority 2001, dated 2006):

What was measured:
Assay type in all cases: cell-based, mouse
[1] = system: RAW264.7 cells; experiment: RANKL-mediated osteoclast differentiation in RAW264.7 cells (TRAP staining)
Method: RAW264.7 cells were plated in 12-well plates and stimulated with RANKL (30 ng/ml) for 4 days. Cells were stained for TRAP essentially as described below. Photographs were taken using a 10× objective lens.
RAW cells were plated as described in FIG. 2A and treated with RANKL in the presence of 1, 30, or 100 μM of peptides as indicated. On day 4 cells were stained and evaluated as in FIG. 2A.
RAW264.7 cells were plated in 48-well plates in triplicate and treated with RANKL in the presence of increasing amounts of the indicated peptides. After 4-5 days, the cells were stained for TRAP and the total numbers of osteoclasts were counted as described below.
Primary bone marrow monocytes (BM) or RAW264.7 cells were cultured in 48-well dishes at a density of 1×10^5 cells/well or 2×10^3 cells/well, and then treated with the indicated factors at the beginning of the culture and during a medium change on day 3. Osteoclast formation was assessed by counting the total number of multi-nucleated (>3 nuclei), TRAP-positive cells present per well between day 7 and 10 (BM) or on day 5 (RAW264.7) (30).
The mouse macrophage cell line RAW264.7 express the receptor activator of NF-κB on their cell surface and when stimulated with the receptor activator of NF-κB ligand differentiate into multi-nucleated, tartrate resistant acid phosphatase (TRAP) positive osteoclasts after 4-5 days (FIG. 2A). To determine whether L-T6DP-1 could inhibit RANKL-mediated osteoclast differentiation, RAW264.7 cells were co-cultured with increasing concentrations of either L-T6DP-1. or T6DP-1 and 30 ng/ml RANKL for 4 days.

[2] = system: IκB; experiment: IκB degradation in RANKL-treated RAW264.7 cells (anti-IκB immunoblot); details: cytoplasmic extracts of RAW264.7 cells from FIG. 4A (FIG. 4B)
Method: RAW264.7 cells were plated in 6-well plates and treated with the indicated peptides for 5 h, then treated with RANKL (10 nM) for 15 mm. Nuclear and cytoplasmic extracts were prepared and a gel mobility shift assays was performed with 8 μg of nuclear extracts as described below.
Cytoplasmic extracts (30 μg) from FIG. 4A were immunoblotted with anti-IκB as described below.
293 cells were plated at 0.6×10^6 cells/well on 6-well plates and transfected the next day as described (8). Total amount of plasmid DNA was kept constant by adding empty pCMVFLAG1 vector. Cells and the conditioned supernatants were harvested 24-36 h after transfection. Lysates were prepared as described (8). For western blot analysis, whole-cell lysates (15-30 μg) or proteins from GST-affinity precipitation were separated by 8.5% SDS-PAGE, electroblotted onto nitrocellulose membranes, and incubated with the indicated antibodies. The membranes were then developed using the enhanced chemiluminescence (ECL) system (Amersham, Chicago, Ill.).

[3] = system: JNK; experiment: RANKL-mediated JNK activation in RAW264.7 cells (immune complex kinase assay, GST-Jun (1-79) substrate); details: peptide 6 h, RANKL 10 nM 15 min (FIG. 5A)
Method: RAW264.7 cells were plated in 6-well plates and treated with the indicated peptides for 6 h, then treated with RANKL (10 nM) for 15 mm. Whole cell extracts were prepared and 30 μg of cell lysate was immunoprecipitated with anti-JNK1. In vitro kinase assays were performed using GST-Jun (1-79) as the substrate as described below.
Lysates were prepared from RAW cells stimulated with RANKL as indicated in the legends to the figures. Approximately 30 μg was then used for immunoprecipitation with indicated antibodies and protein A/G Sepharose beads for 1 h. Beads were collected by centrifugation, washed three times in lysis buffer, and then washed two times in low-salt buffer. JNK activity was analyzed using exogenous GST-Jun (1-79) as a substrate as previously described (8). Kinase activity was quantitated using a PhosphoImager and Imagequant Software (Molecular Dynamics, Sunnyvale, Calif.).
(§1) Stimulation of the receptor activator of NF-κB activates members of the MAPK family including JNK, ERK and p38 kinase. The ability of the TRAF6 binding peptides to inhibit the receptor activator of NF-κB ligand-induced JNK, ERK, and p38 kinase activation was examined in RAW264.7 cells. […] Similar to the results with JNK, only L-T6DP-1 was able to block ERK (FIG. 5B) and p38 kinase (FIG. 5C) activation induced by the receptor activator of NF-κB ligand in RAW264.7 cells.

[4] = system: ERK; experiment: RANKL-mediated ERK activation in RAW264.7 cells (phospho-specific immunoblot); details: peptide 6 h, RANKL 10 nM 15 min (FIG. 5B)
Method: (§2) FIG. 5B and FIG. 5C show inhibition of RANKL-mediated ERK and p38 activation by L-T6DP-1. Whole cell extracts (30 μg) from FIG. 5A were separated by 10% SDS-PAGE and electroblotted onto a nitrocellulose membrane. The membranes were first immunoblotted with the indicated phospho-specific antibody and then stripped and re-probed with the indicated antibodies as described below.
as §1

[5] = system: p38 kinase; experiment: RANKL-mediated p38 kinase activation in RAW264.7 cells (phospho-specific immunoblot); details: peptide 6 h, RANKL 10 nM 15 min (FIG. 5C)
Method: as §2, §1

[6] = system: RAW cells co-cultured with breast cancer cell lines; experiment: Osteoclast differentiation of RAW cells induced by co-cultured breast cancer cells (T47D, MDA-MB-468); details: co-culture, 100 μM peptide, 5 days, TRAP staining (FIG. 6A)
Method: FIG. 6A: Breast cancer cells (500/well) were plated in 24-well plates in the absence or presence of RAW cells (10000/well) and in the absence or presence of L-T6DP-1 or T6DP-1 (100 μM). After 5 days. the cells were fixed, stained for TRAP, and photographed with a 10× objective lens.
The number of MG-63 cells was critical for inducing RAW cells to differentiate into osteoclasts. These observations lead to a direct inverse relationship between the number of RAW cells to MG-63 cells which is required for the formation of osteoclasts. […] When grown on synthetic bone slides, the osteoclasts derived from the co-culture assays were able to cause bone resorption (FIG. 6B).
When L-T6DP-1 was added to these co-culture assays, the ability of the breast cancer cells to induce osteoclast differentiation of RAW cells was abolished, whereas T6DP-1 had no effect (FIG. 6A).

Substance: L-T6DP-1: Kaposi fibroblast growth factor signal sequence hydrophobic domain attached to murine RANK peptide containing the known TRAF6 binding domain (AAVALLPAVLLALLAPRKIPTEDEYTDRPSQPST; PEPTIDE Peptide L-T6Bp-1)
- RANKL-mediated osteoclast differentiation ([1]; 30 ng/ml RANKL, 4 days, 1, 30 or 100 μM peptide (FIG. 2B)): dose-dependent inhibition
- multi-nucleated osteoclasts ([1]; RANKL, 100 μM peptide, cells still TRAP positive (FIG. 2B)): multi-nucleated osteoclast were not observed
- number of TRAP positive osteoclasts ([1]; RANKL, increasing amounts of peptide, 4-5 days (FIG. 2C)): dose-dependent decrease
- IκB degradation [2]: inhibition
- RANKL-mediated JNK activation [3]: capable of inhibiting
- RANKL-induced ERK activation [4]: able to block
- RANKL-induced p38 kinase activation [5]: able to block
- ability of breast cancer cells to induce osteoclast differentiation of RAW cells [6]: abolished
